The nature of data set [1]: Biotin-4-fluorescein (B-4-F) off-rate assay. The class given is binding. How it is done: The off rate of streptavidin or the streptavidin mutants for biotin can be easily measured using the Biotin-4-fluorescein (B-4-F) off-rate assay described in the Examples. In this assay streptavidin (or a mutant thereof) is incubated with 12 nM B-4-F for 30 minutes at 37° C., where the binding of B-4-F to streptavidin quenches fluorescence. Excess biotin (100 μM) is added and fluorescence is then measured every 10 minutes for 10-18 hours. The rate of recovery of fluorescence indicates B-4-F off-rate from the streptavidin. Thus, the quicker that the fluorescence is seen in the sample the higher is the off rate, as fluorescence only starts to increase once B-4-F has dissociated from streptavidin.
The amount of B-4-F recovered during an incubation with wildtype streptavidin is at least 9%, for example 10, 11 or 12%. The amount of B-4-F recovered after a 10 hour incubation with a mutant streptavidin of the present invention may be less than 9%, for example less than 8, 7, 6, 5, 4, 3, 2 or 1%. Particularly, the amount of B-4-F recovered may be 2-3%.
The off-rate of biotin-4-fluorescein from avidin, streptavidin or traptavidin was measured using a PHERAstar plate-reader with 480 nm excitation and 520 nm emission (BMG LABTECH). In this assay the binding of biotin-4-fluorescein to an excess of binding protein results in quenching of fluorescein emission (Kada et al., 1999, Biochim. Biophys. Acta, 1427, 33-43). As the biotin-4-fluorescein dissociates, the fluorescence recovers. The assay was performed in the presence of excess biotin so that sites left open by biotin-4-fluorescein dissociation are immediately re-filled by biotin. 1 μM protein in 10 μL PBS was added to 12 nM biotin-4-fluorescein (Invitrogen), 0.12 mg/mL BSA in 170 μL PBS and incubated for 1 hr at 37° C. 20 μL PBS or 20 μL 1 mM biotin in PBS was then added and fluorescence measurements immediately started at 37° C. Percentage dissociation was calculated as (signal with biotin−signal without biotin)/(signal without quenching−signal without biotin)×100.
Since biotin-4-fluorescein fluorescence is decreased at low pH, 100 nM streptavidin, S52G R53N streptavidin, S52G R53S streptavidin, or traptavidin was incubated with 12 nM biotin-4-fluorescein in 100 mM NaCl, 30 mM sodium citrate pH 5.0 for 3 hr at 25° C., before incubating at 37° C. and adding 100 μM biotin and incubating for various times. Samples were then placed on ice to block further dissociation, adjusted to pH 7.2 with 1M HEPES pH 8.3, and fluorescence intensity was immediately measured as above. p-values were calculated using two-tailed Student t-tests from the data at the final timepoint.

For data set [2] the following is noted: cited from earlier work.
Data set [3] is classed as binding. How it is done:
AFM cantilevers (Veeco MLCT-AUHW) with a nominal spring constant of 0.01 N/m were used in all measurements and calibrated by the thermal fluctuation method (Hutter and Bechhoefer, 1993, Review of Scientific Instruments, 64, 1868-1873). Cantilevers were briefly washed in acetone and then UV irradiated for 15 minutes. Cantilevers were then briefly dipped in 0.1M NaHCO3 pH 9.0, air-dried, and coated in 0.5 mg/mL biotinamidocaproyl-Bovine Serum Albumin (biotin-BSA) (Sigma) overnight at 4° C. in a humidified chamber. Cantilevers were washed three times in PBS and then coated with 0.01-0.3 mg/mL streptavidin or […] for 15 mins at 25° C. […] dishes were coated with 0.1M NaHCO3 pH 9 and then 0.5 mg/mL non-recombinant streptavidin (from Streptomyces avidinii, Pierce) in 0.1M NaHCO3 pH 9 overnight in a humidified chamber at 4° C. Biotinylated agarose beads (Sigma) were aspirated onto the dish. Measurements were conducted at 25° C. with a custom built AFM (Rico and Moy, 2007, J. Mol. Recogniti., 20, 495-501). […] Single molecule rupture forces were determined by calculating the force in the retraction trace at the initial point of rupture, using Igor Pro 6.04 (Wavemetrics Inc.). […] The loading rate was determined as the slope of the force vs time plot before the rupturing of the single molecule bond and significance was evaluated with the Mann-Whitney test.

Data set [4] in a line: Thermostability of biotin-conjugate binding (agarose gel). The conditions noted are these: for dissociation of biotinylated DNA at 70° C.: 3 min. An excerpt:
For example, thermostability for biotin or a biotin conjugate can be measured in terms of the temperature at which 50% of the biotin or biotin conjugate is bound by the streptavidin, i.e. the temperature at which there is 50% dissociation. […] Thermostability for biotin or a biotin conjugate can be easily determined by heating streptavidin or a mutant thereof with biotin or a biotin conjugate to a particular temperature and then placing on ice. The amounts of free versus bound biotin conjugate present can be determined using an agarose gel and quantifying the band intensities.
To determine the thermostability of bioin-conjugate binding, 5.0 μM streptavidin or traptavidin in PBS was incubated with 21 nM monobiotinylated DNA in 4 μL for 30 minutes at 25° C. The samples were made up to a total volume of 10 μL with a final concentration of 100 μM biotin, 20 mM Tris acetate, 1 mM DDT, 2 mM magnesium acetate and 20 mM potassium glutamate pH 7.5 and were incubated for 5 minutes at 25° C. Samples were then heated at the indicated temperature for 3 minutes using a Thermal Cycler and cooled to 10° C. An agarose gel of 1.5% was run at 6.0V/cm in TAE at 25° C. for 45 minutes and DNA stained with ethidium bromide was visualized using a ChemiDoc XRS imager and QuantityOne 4.6 software. The percentages were calculated as 100× the intensity of the band for free DNA divided by the summed intensities of the bands for free and bound DNA. The 439 bp biotinylated DNA was prepared by PCR using Taq polymerase employing the primers Fts1 and the internally biotinylated primer bioFts2 (Eurofins) from the plasmid pJEG41-N1.

A short description of data set [5]: Thermostability of the tetramer structure (SDS-PAGE). The class given is physicochemical. To be noted: absence of biotin, heated 3 min. An excerpt: Streptavidin naturally occurs in tetrameric form i.e. made up of four streptavidin subunits. Streptavidin tetramers will however dissociate into monomeric form at high temperatures. […] For example, thermostability can be measured in terms of the temperature at which 50% of streptavidin is in the tetrameric form and 50% is in the monomeric form i.e. the temperature at which there is 50% dissociation.
Thermostability can be easily determined by heating streptavidin or a mutant thereof to a particular temperature and then placing on ice. The amounts of subunits/tetramers present can be determined using SDS-PAGE and quantifying band intensities.
3 μM streptavidin or traptavidin in PBS was heated at the indicated temperature for 3 min in a Bio-Rad DNA Engine® Peltier Thermal Cycler and then immediately placed on ice (Bayer et al., 1996, Electrophoresis, 17, 1319-1324). Samples were mixed with 6×SDS-PAGE loading buffer and loaded onto a 18% polyacrylamide gel. The 100% monomer positive control was mixed with SDS loading buffer prior to heating at 95° C. for 3 min. Band intensities were quantified using a ChemiDoc XRS imager and QuantityOne 4.6 software (Bio-Rad).

A short description of data set [6]: On-rate assay (biotin-4-fluorescein quenching). It is filed as binding. How it is done: The on rate can be measured again using an adapted B-4-F assay as described above. […] The on rate can therefore be established by the decrease in the amount of fluorescence which occurs over the incubation time. The faster the rate of decrease in fluorescence, the higher the on rate.
The on-rate of biotin-4-fluorescein from streptavidin or traptavidin was measured in PBS on a PHERAstar plate-reader (BMG LABTECH). In this assay the binding of biotin-4-fluorescein to streptavidin/traptavidin results in quenching of the fluorescein emission (Kada et al., 1999). 20 μL 10 nM streptavidin or traptavidin was added to 180 μL 56 μM biotin-4-fluorescein and the fluorescein emission at measured every 6 s at 25° C. The concentration of free biotin-4-fluorescein was calculated as (signal with biotin−signal without biotin)/(signal without quenching−signal without biotin)×50 μM starting biotin-4-fluorescein. Linear regression using GraphPad Prism was applied to the plot of 1n free biotin-4-fluorescein against time, with the gradient equal to kon×[streptavidin or traptavidin].

In data set [7] the test system is AP-IGF1R/BirA-ER expressing COST cells. The data set is described as follows: Cellular imaging with Alexa Fluor 555 conjugates. The class given is cell-based. How it is done: Streptavidin and […] labeled with Alexa Fluor 555 by adding 1/10 volume of 1 M NaHCO3 pH 8.3 and then a 10-fold molar excess of Alexa Fluor 555 succinimidyl ester (Invitrogen) (stock dissolved at 1 mg/mL in dry dimethylformamide) and incubating for 4 hr at room temperature. Free dye was separated using 1 mL packed volume Sephadex G-25 (Sigma) in a poly-prep column. Fractions containing labelled protein were pooled and dye was further removed by three rounds of dialysis in PBS. COST cells were grown in DMEM with 10% Fetal Calf Serum, 50 U/mL penicillin and 50 μg/mL streptomycin. Cells were transfected using Lipofectamine 2000 (Invitrogen) following manufacturer's instructions with 0.25 μg AP-IGF1R, 0.2 μg BirA-ER and 0.05 μg H2B-ECFP per well of a 48 well plate. Cells were incubated with 10 μM biotin overnight for optimum biotinylation by BirA-ER. On the next day, cells were washed 3× in PBS with 5 mM MgCl2 (PBS/Mg) and kept thereafter at 4° C. Cells were incubated for 15 min in PBS/Mg with 1% dialyzed BSA and 0.4 μM Alexa Fluor 555 conjugated […]. Cells were washed with PBS/Mg 3× before imaging live. Cells were imaged using a wide-field DeltaVision Core fluorescent microscope (AppliedPrecision) with a 40× oil-immersion lens. ECFP (436DF20 excitation, 480DF40 emission, Chroma 86002v1 dichroic), Alexa Fluor 555 (540D420 excitation, 600DF50 emission, Chroma 84100bs polychroic), and bright-field images were collected and analyzed using softWoRx 3.6.2 software. Typical exposure times were 0.1-1.0 s and fluorescence images were background-corrected. Different samples in the same experiment were prepared, imaged and analyzed under identical conditions.

For data set [8], the system named is biotinylated DNA with FtsK50C. The data set is described as follows: FtsK displacement assay. Also noted: species or system E. coli. To be noted: in the presence of ATP, 2 min, 25° C.
Method: The FtsK displacement assay was performed at 25° C. in 25 mM Tris pH 7.5, 10 mM MgCl2. 5.9 nM DNA fragment was incubated with 0.5 μM streptavidin or traptavidin for 15 min, followed by 100 μM biotin to block free biotin binding sites. 1 μM FtsK50C was added and allowed to bind to the DNA for 5 min. 2.5 mM ATP was added to start the reaction, which was stopped after 2 min with 0.1% SDS and 20 mM EDTA. Samples were incubated for 20 mM to allow FtsK50C denaturation, mixed with 10× gel loading buffer (250 mM Tris pH 7.5, 20 mM EDTA, 50% glycerol, 2.5% bromophenol blue) and loaded on a 1.5% agarose gel in 1×TBE (89 mM Tris, 89 mM boric acid, 2 mM EDTA, pH 8.3) at 10 V/cm for 2 hr at 25° C. Gels were stained with SYBR Green (Invitrogen) for 2 hr, washed in ddH2O for 30 mM, imaged using a Fuji FLA3000 scanner, and quantified using Image Gauge software (Fuji). p-values were calculated using a two-tailed Student t-test.
For data set [9] the following is noted: free biotin; cited from earlier work.
The conditions of data set [10]: depending on the conjugate; cited from earlier work.
[11] abbreviates: 37° C., pH 7.4, excess free biotin.

With “avidin: Avidin (Sigma), biotin binding protein used as comparator [reference compound]”, in data set [1] (setting [11]), the “biotin conjugate off-rate (biotin-4-fluorescein dissociation)” value (shortened to “biotin conjugate off-rate”) is given as “dissociated very much faster than streptavidin”.
For the compound `O=C(O)CCCC[C@@H]1SC[C@@H]2NC(=O)N[C@@H]21` [biotin, cis-hexahydro-2-oxo H-thieno[3,4] imidazole-4-pentanoic acid], the pKa entry in [2] was “about 4”.
Take “traptavidin: S52G R53D mutant of core streptavidin with His6 tag, tetramer; subunit SEQ ID NO. 5”: in [3], the “mechanical stability to a biotinylated ligand” value is recorded as “significantly greater mechanical stability than streptavidin”. For the same compound, the “dissociation of biotinylated DNA at 70° C.” value in data set [4] is “most ligand was still bound”. The “temperature at which there is 50% dissociation of tetramer into monomer” value in data set [5] was around 85 °C. The “on-rate reduction relative to streptavidin” value in [6] is recorded as “approximately 2 fold”. In addition, in [7] (Alexa Fluor 555 conjugate), the “binding to untransfected neighboring cells expressing only AP-IGF1R” value is given as “no detectable binding”, the “signal on AP-IGF1R/BirA-ER expressing cells” value is reported as “strong signal” and the “specificity for cellular imaging” value is “high specificity”. Also, the “staining compared with streptavidin” value in data set [7] (each conjugated to Alexa Fluor 555) is on record as “comparable”. Further, in data set [7] (pre-blocked with free biotin), the “binding to equivalently treated cells when pre-blocked with free biotin” value is recorded as “minimal binding”. Also, in data set [1] (setting [11]), the “biotin conjugate off-rate” value was “dramatically reduced biotin conjugate off-rate”, the “change at the initial time-point (dissociation)” value was around 2% and the “dissociation over the subsequent 12 hr” value is on record as “very little dissociation”. The “off-rate at pH 5 of biotin-4-fluorescein” value in data set [1] (pH 5, 37° C.) is “significantly slower than streptavidin”. Also, the “dissociated from the DNA by FtsK50C translocation” value in [8] came out at 11%.
Consider “streptavidin: wildtype streptavidin protein comprising four wildtype subunits; core streptavidin with C-terminal His6 used in the tests [reference compound]”, for which, in data set [4], the “temperature at which there is 50% dissociation of biotin or biotin conjugate” value was 50-60 °C and the “dissociation of biotinylated DNA at 70° C.” value is “complete dissociation”. In data set [5], the “temperature at which there is 50% dissociation of tetramer into monomer” value is around 75 °C. In addition, the “temperature at which there is 50% dissociation of tetramer into monomer” value in [5] (listed as wildtype streptavidin) is 70-75 °C. Moreover, in [1] (setting [11]), the “biotin conjugate off-rate” value was “dissociated steadily”. Further, the “amount of B-4-F recovered” value in data set [1] (10 hour incubation, 37° C., excess biotin) was “at least 9%”. Besides, the “dissociated from the DNA by FtsK50C translocation” value in data set [8] amounted to 33%. In [9], the “half life of free biotin” value is reported as “approximately 6.6 hr” and the “off rate of biotin” value is 2.9e-05 s⁻¹. Besides, in data set [10], the “half life for conjugated biotin” value was 6 to 100 h.

Values taken from patent publication US8759488B2, “High stability streptavidin mutant proteins” (Isis Innovation Limited, priority 2009, dated 2014).
